Assay: relative permittivity at various frequencies (dimensionless); xn = mol fraction of the nth substance listed
Conditions: 100 kPa, Liquid, Frequency=1 MHz, Parallel plate capacitor

NC1CCCCC1 [cyclohexylamine] + CCCCCCCO
relative permittivity
Conditions | 293.15 K | 298.15 K | 303.15 K
x2 = 0 | 4.62 | 4.53 | 4.45
x2 = 0.0522 | 4.93 | 4.83 | 4.74
x2 = 0.1037 | 5.22 | 5.11 | 5.01
x2 = 0.2039 | 5.8 | 5.7 | 5.61
x2 = 0.2903 | 6.29 | 6.15 | 6.01
x2 = 0.3955 | 6.93 | 6.76 | 6.6
x2 = 0.4467 | 7.27 | 7.08 | 6.91
x2 = 0.5072 | 7.67 | 7.45 | 7.26
x2 = 0.5554 | 8.01 | 7.78 | 7.56
x2 = 0.5918 | 8.26 | 8.01 | 7.78
x2 = 0.6575 | 8.72 | 8.45 | 8.19
x2 = 0.6959 | 9.01 | 8.71 | 8.44
x2 = 0.7433 | 9.39 | 9.07 | 8.77
x2 = 0.7933 | 9.81 | 9.46 | 9.13
x2 = 0.8177 | 10.03 | 9.67 | 9.34
x2 = 0.8881 | 10.7 | 10.29 | 9.9
x2 = 0.9463 | 11.35 | 10.89 | 10.45

CCCCCCCCCCO [decan-1-ol] + NC1CCCCC1
x1 = 1
Conditions | relative permittivity
293.15 K | 8.41
298.15 K | 8.01
303.15 K | 7.64

NC1CCCCC1 [cyclohexylamine] + CCCCO
relative permittivity
Conditions | 293.15 K | 298.15 K | 303.15 K
x2 = 0 | 4.62 | 4.53 | 4.45
x2 = 0.0493 | 4.99 | 4.9 | 4.8
x2 = 0.1081 | 5.46 | 5.35 | 5.23
x2 = 0.2107 | 6.37 | 6.22 | 6.07
x2 = 0.3104 | 7.39 | 7.2 | 7.01
x2 = 0.403 | 8.47 | 8.22 | 7.99
x2 = 0.4521 | 9.08 | 8.82 | 8.56
x2 = 0.4995 | 9.73 | 9.44 | 9.15
x2 = 0.5556 | 10.55 | 10.21 | 9.9
x2 = 0.5974 | 11.18 | 10.82 | 10.49
x2 = 0.6987 | 12.81 | 12.4 | 11.98
x2 = 0.7968 | 14.53 | 14.04 | 13.57
x2 = 0.8955 | 16.31 | 15.76 | 15.24
x2 = 0.9472 | 17.26 | 16.67 | 16.11
x2 = 0.9773 | 17.82 | 17.2 | 16.63

CCCCO [butan-1-ol] + NC1CCCCC1
x1 = 1
Conditions | relative permittivity
293.15 K | 18.21
298.15 K | 17.58
303.15 K | 16.95

— the NIST ThermoML archive (doi:10.1016/j.jct.2015.07.032)
